Measured values from patent publication US9682995B2, “Amino-substituted isothiazoles” (BAYER PHARMA AKTIENGESELLSCHAFT, priority 2013, dated 2017).

Columns and labels:
CDK2/CycE = CDK2/CycE (Homo sapiens (Human), UniProt P24941); assay: CDK2/CycE kinase assay (TR-FRET); assay type: biochemical; conditions: 10 μM ATP; read-out: CDK2 avg (IC50 [mol/l])
From the text: CDK2/CycE-inhibitory activity of compounds of the present invention was quantified employing the CDK2/CycE TR-FRET assay as described in the following paragraphs.
Recombinant fusion proteins of GST and human CDK2 and of GST and human CycE, expressed in insect cells (Sf9) and purified by Glutathion-Sepharose affinity chromatography, were purchased from ProQinase GmbH (Freiburg, Germany). As substrate for the kinase reaction biotinylated peptide biotin-Ttds-YISPLKSPYKISEG (C-terminus in amid form) was used which can be purchased e.g. form the company JERINI peptide technologies (Berlin, Germany).
For the assay 50 nl of a 100 fold concentrated solution of the test compound in DMSO was pipetted into a black low volume 384 well microtiter plate (Greiner Bio-One, Frickenhausen, Germany), 2 μl of a solution of CDK2/CycE in aqueous assay buffer [50 mM Tris/HCl pH 8.0, 10 mM MgCl2, 1.0 mM dithiothreitol, 0.1 mM sodium ortho-vanadate, 0.01% (v/v) Nonidet-P40 (Sigma)] were added and the mixture was incubated for 15 min at 22° C. to allow pre-binding of the test compounds to the enzyme before the start of the kinase reaction. Then the kinase reaction was started by the addition of 3 μl of a solution of adenosine-tri-phosphate (ATP, 16.7 μM=>final conc. in the 5 μl assay volume is 10 μM) and substrate (1.25 μM=>final conc. in the 5 μl assay volume is 0.75 μM) in assay buffer and the resulting mixture was incubated for a reaction time of 25 min at 22° C. The concentration of CDK2/CycE was adjusted depending of the activity of the enzyme lot and was chosen appropriate to have the assay in the linear range, typical concentrations were in the range of 130 ng/ml. The reaction was stopped by the addition of 5 μl of a solution of TR-FRET detection reagents (0.2 μM streptavidine-XL665 [Cisbio Bioassays, Codolet, France] and 1 nM anti-RB(pSer807/pSer811)-antibody from BD Pharmingen [#558389] and 1.2 nM LANCE EU-W1024 labeled anti-mouse IgG antibody [Perkin-Elmer, product no. AD0077, as an alternative a Terbium-cryptate-labeled anti-mouse IgG antibody from Cisbio Bioassays can be used]) in an aqueous EDTA-solution (100 mM EDTA, 0.2% (w/v) bovine serum albumin in 100 mM HEPES/NaOH pH 7.0).
The resulting mixture was incubated 1 h at 22° C. to allow the formation of complex between the phosphorylated biotinylated peptide and the detection reagents. Subsequently the amount of phosphorylated substrate was evaluated by measurement of the resonance energy transfer from the Eu-chelate to the streptavidine-XL. Therefore, the fluorescence emissions at 620 nm and 665 nm after excitation at 350 nm was measured in a TR-FRET reader, e.g. a Rubystar (BMG Labtechnologies, Offenburg, Germany) or a Viewlux (Perkin-Elmer). The ratio of the emissions at 665 nm and at […] was taken as the measure for the amount of phosphorylated substrate. The data were normalised (enzyme reaction without inhibitor=0% inhibition, all other assay components but no enzyme=100% inhibition).

HeLa = assay: Proliferation assay (crystal violet), HeLa; assay type: cell-based; conditions: Homo sapiens, 96 h, 4 days, read-out: Inhibition of proliferation IC50 HeLa
Protocol: Cultivated tumor cells (cells were ordered from ATCC, except HeLa-MaTu and HeLa-MaTu-ADR, which were ordered from EPO-GmbH, Berlin) were plated at a density of 1000 to 5000 cells/well, depending on the growth rate of the respective cell line, in a 96-well multititer plate in 200 μL of their respective growth medium supplemented 10% fetal calf serum. After 24 hours, the cells of one plate (zero-point plate) were stained with crystal violet (see below), while the medium of the other plates was replaced by fresh culture medium (200 μl), to which the test substances were added in various concentrations (0 μM, as well as in the range of 0.001-10 μM; the final concentration of the solvent dimethyl sulfoxide was 0.5%). The cells were incubated for 4 days in the presence of test substances. Cell proliferation was determined by staining the cells with crystal violet: the cells were fixed by adding 20 μl/measuring point of an 11% glutaric aldehyde solution for 15 minutes at room temperature. After three washing cycles of the fixed cells with water, the plates were dried at room temperature. The cells were stained by adding 100 μl/measuring point of a 0.1% crystal violet solution (pH 3.0). After three washing cycles of the stained cells with water, the plates were dried at room temperature. The dye was dissolved by adding 100 μl/measuring point of a 10% acetic acid solution. Absorption was determined by photometry at a wavelength of 595 nm. The change of cell number, in percent, was calculated by normalization of the measured values to the absorption values of the zero-point plate (=0%) and the absorption of the untreated (0 μm) cells (=100%). The IC50 values were determined by means of a 4 parameter fit.

SMILES	IC50 (CDK2/CycE)	IC50 (HeLa)
CCc1ccccc1NC(=O)c1c(C)nsc1Nc1nc(C)nc2sccc12 [Example 38, N-(2-Ethylphenyl)-3-methyl-5-[(2-methylthieno[2,3-d]pyrimidin-4-yl)amino]-1,2-thiazole-4-carboxamide]	> 20 µM	5.3 µM
CCc1ccccc1NC(=O)c1c(C)nsc1Nc1cc(C(F)(F)F)ccn1 [Example 18, N-(2-Ethylphenyl)-3-methyl-5-{[4-(trifluoromethyl)pyridin-2-yl]amino}-1,2-thiazole-4-carboxamide]	> 20 µM	7.5 µM
Cc1nsc(Nc2cc(C#N)ccn2)c1C(=O)Nc1ccc(Oc2ccc(F)cc2F)nc1 [Example 114, 5-[(4-Cyanopyridin-2-yl)amino]-N-[6-(2,4-difluorophenoxy)pyridin-3-yl]-3-methyl-1,2-thiazole-4-carboxamide]	> 20 µM	1.1 µM
CCc1ccccc1NC(=O)c1c(C)nsc1Nc1nc2ccccc2o1 [Example 11, 5-(1,3-Benzoxazol-2-ylamino)-N-(2-ethylphenyl)-3-methyl-1,2-thiazole-4-carboxamide]	> 20 µM	3.7 µM
CCc1ccccc1NC(=O)c1c(C)nsc1Nc1ncccc1C#N [Example 8, 5-[(3-Cyanopyridin-2-yl)amino]-N-(2-ethylphenyl)-3-methyl-1,2-thiazole-4-carboxamide]	> 20 µM	> 10 µM
COc1ccc(NC(=O)c2c(C)nsc2Nc2cccc(C#N)n2)cn1 [Example 37, 5-[(6-Cyanopyridin-2-yl)amino]-N-(6-methoxypyridin-3-yl)-3-methyl-1,2-thiazole-4-carboxamide]	> 20 µM	> 10 µM
Cc1nsc(Nc2cc(C#N)ccn2)c1C(=O)Nc1ccc(OC2CCCCC2)nc1 [Example 118, 5-[(4-Cyanopyridin-2-yl)amino]-N-[6-(cyclohexyloxy)pyridin-3-yl]-3-methyl-1,2-thiazole-4-carboxamide]	> 20 µM	1.7 µM
COc1ccc(NC(=O)c2c(C)nsc2Nc2ccc(C#N)cn2)cn1 [Example 39, 5-[(5-Cyanopyridin-2-yl)amino]-N-(6-methoxypyridin-3-yl)-3-methyl-1,2-thiazole-4-carboxamide]	> 20 µM	6.7 µM
CCc1ccccc1NC(=O)c1c(C)nsc1Nc1ncnc2ccsc12 [Example 13, N-(2-Ethylphenyl)-3-methyl-5-(thieno[3,2-d]pyrimidin-4-ylamino)-1,2-thiazole-4-carboxamide]	> 20 µM	> 10 µM
CCc1ccccc1NC(=O)c1c(C)nsc1Nc1ncnc2sccc12 [Example 12, N-(2-Ethylphenyl)-3-methyl-5-(thieno[2,3-d]pyrimidin-4-ylamino)-1,2-thiazole-4-carboxamide]	> 20 µM	9.5 µM
CCc1ccccc1NC(=O)c1c(C)nsc1Nc1cnc2ccccc2n1 [Example 19, N-(2-Ethylphenyl)-3-methyl-5-(quinoxalin-2-ylamino)-1,2-thiazole-4-carboxamide]	> 20 µM	2.5 µM
COc1ccc(NC(=O)c2c(C)nsc2Nc2nc3c(C(F)(F)F)cccc3s2)cn1 [Example 48, N-(6-Methoxypyridin-3-yl)-3-methyl-5-{[4-(trifluoromethyl)-1,3-benzothiazol-2-yl]-amino}-1,2-thiazole-4-carboxamide]	> 20 µM	0.58 µM
CCOC(=O)c1sc(Nc2snc(C)c2C(=O)Nc2ccccc2CC)nc1C [Example 26, Ethyl 2-({4-[(2-ethylphenyl)carbamoyl]-3-methyl-1,2-thiazol-5-yl}amino)-4-methyl-1,3-thiazole-5-carboxylate]	> 20 µM	4.4 µM
Cc1nsc(Nc2nc3c(C(F)(F)F)cccc3s2)c1C(=O)Nc1ccc(Cl)c(Cl)c1 [Example 102, N-(3,4-Dichlorophenyl)-3-methyl-5-{[4-(trifluoromethyl)-1,3-benzothiazol-2-yl]amino}-1,2-thiazole-4-carboxamide]	> 20 µM	7.3 µM

Continued, values first:

IC50 (CDK2/CycE)	IC50 (HeLa)	SMILES
> 20 µM	1.2 µM	COc1ccc(NC(=O)c2c(C)nsc2Nc2cnc3ccc(Cl)cc3n2)cn1 [Example 42, 5-[(7-Chloroquinoxalin-2-yl)amino]-N-(6-methoxypyridin-3-yl)-3-methyl-1,2-thiazole-4-carboxamide]
> 20 µM	1.8 µM	COc1ccc(NC(=O)c2c(C)nsc2Nc2cnc3cc(Cl)ccc3n2)cn1 [Example 23, 5-[(6-Chloroquinoxalin-2-yl)amino]-N-(6-methoxypyridin-3-yl)-3-methyl-1,2-thiazole-4-carboxamide]
> 20 µM	0.79 µM	Cc1nsc(Nc2cnccn2)c1C(=O)Nc1ccc(Cl)c(F)c1 [Example 56, N-(4-Chloro-3-fluorophenyl)-3-methyl-5-(pyrazin-2-ylamino)-1,2-thiazole-4-carboxamide]
> 20 µM	1.3 µM	COc1ccc(NC(=O)c2c(C)nsc2Nc2cnc3cccc(C)c3n2)cn1 [Example 22, N-(6-methoxypyridin-3-yl)-3-methyl-5-[(8-methylquinoxalin-2-yl)amino]-1,2-thiazole-4-carboxamide]
> 20 µM	3.7 µM	Cc1nsc(Nc2cncc(C(=O)N3CCCC3)n2)c1C(=O)Nc1ccc(F)c(F)c1 [Example 106, N-(3,4-Difluorophenyl)-3-methyl-5-{[6-(pyrrolidin-1-ylcarbonyl)pyrazin-2-yl]amino}-1,2-thiazole-4-carboxamide]
> 20 µM	10 µM	Cc1nsc(Nc2cncc(C(=O)N(C)C)n2)c1C(=O)Nc1ccc(F)c(F)c1 [Example 104, 6-({4-[(3,4-Difluorophenyl)-carbamoyl]-3-methyl-1,2-thiazol-5-yl}amino)-N,N-dimethyl-pyrazine-2-carboxamide]
> 20 µM	10 µM	CCOC(=O)c1cnc(Nc2snc(C)c2C(=O)Nc2ccc(F)c(F)c2)o1 [Example 96, Ethyl 2-({4-[(3,4-difluorophenyl)carbamoyl]-3-methyl-1,2-thiazol-5-yl}amino)-1,3-oxazole-5-carboxylate]
> 20 µM	2 µM	Cc1nsc(Nc2cc(C#N)ccn2)c1C(=O)Nc1ccc(F)c(F)c1 [Example 27, 5-[(4-Cyanopyridin-2-yl)amino]-N-(3,4-difluorophenyl)-3-methyl-1,2-thiazole-4-carboxamide]
> 20 µM	1.6 µM	Cc1nsc(Nc2ccc(C#N)cn2)c1C(=O)Nc1ccc(F)c(F)c1 [Example 28, 5-[(5-Cyanopyridin-2-yl)amino]-N-(3,4-difluorophenyl)-3-methyl-1,2-thiazole-4-carboxamide]
> 20 µM	2.9 µM	Cc1nsc(Nc2nc3c(C(F)(F)F)ccnc3s2)c1C(=O)Nc1ccc(Cl)c(F)c1 [Example 103, N-(4-Chloro-3-fluorophenyl)-3-methyl-5-{[7-(trifluoromethyl)[1,3]thiazolo[5,4-b]pyridin-2-yl]amino}-1,2-thiazole-4-carboxamide]
